Experimental data reported in ChEMBL document CHEMBL2074235, “Transporter-mediated Drug Interactions” (Drug Metabol Pharmacokin, 2002).

Target: T1, Solute carrier family 15 member 1 (Homo sapiens) (UniProt P46059)
T1 sequence (whole entry): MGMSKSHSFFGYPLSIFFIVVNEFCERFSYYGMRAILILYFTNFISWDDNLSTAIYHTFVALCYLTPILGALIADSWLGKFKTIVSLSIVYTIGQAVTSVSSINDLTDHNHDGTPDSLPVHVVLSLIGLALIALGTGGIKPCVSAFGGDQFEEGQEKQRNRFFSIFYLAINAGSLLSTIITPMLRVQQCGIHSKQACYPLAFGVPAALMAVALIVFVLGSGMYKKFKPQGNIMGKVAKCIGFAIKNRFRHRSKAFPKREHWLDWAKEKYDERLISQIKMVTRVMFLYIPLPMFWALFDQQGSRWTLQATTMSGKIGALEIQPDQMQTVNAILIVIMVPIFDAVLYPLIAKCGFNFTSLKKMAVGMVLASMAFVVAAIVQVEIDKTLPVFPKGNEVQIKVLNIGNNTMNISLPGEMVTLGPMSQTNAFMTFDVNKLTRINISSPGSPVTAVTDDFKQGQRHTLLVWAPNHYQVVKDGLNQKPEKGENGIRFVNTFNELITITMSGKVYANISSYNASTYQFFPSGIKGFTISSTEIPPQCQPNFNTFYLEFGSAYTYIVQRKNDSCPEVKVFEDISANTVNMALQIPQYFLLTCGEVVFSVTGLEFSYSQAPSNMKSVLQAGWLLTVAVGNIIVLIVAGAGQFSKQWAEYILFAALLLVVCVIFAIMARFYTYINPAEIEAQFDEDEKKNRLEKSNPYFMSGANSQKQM
Experiment: TP_TRANSPORTER: uptake in Xenopus laevis oocytes
Assay type: functional, cell-based
Conditions: Oocyte

| SMILES | Activity |
| --- | --- |
| CCOC(=O)[C@H](CCc1ccccc1)N[C@@H](C)C(=O)N1CCC[C@H]1C(=O)O | substrate [+] |
| NCCCC[C@H](N[C@@H](CCc1ccccc1)C(=O)O)C(=O)N1CCC[C@H]1C(=O)O | is not a substrate [-] |
| C=CC1=C(C(=O)O)N2C(=O)[C@@H](NC(=O)/C(=N\O)c3csc(N)n3)[C@H]2SC1 | substrate [+] |
| C[C@H](N[C@@H](CCc1ccccc1)C(=O)O)C(=O)N1CCC[C@H]1C(=O)O | substrate [+] |
| CC1=C(C(=O)O)N2C(=O)[C@@H](NC(=O)[C@H](N)c3ccc(O)cc3)[C@H]2SC1 | substrate [+] |
| C=CC1=C(C(=O)O)N2C(=O)[C@@H](NC(=O)/C(=N\OCC(=O)O)c3csc(N)n3)[C@H]2SC1 | substrate [+] |
| C[C@@H](O)[C@H]1C(=O)N2C(C(=O)O)=C([C@H]3CCCO3)S[C@H]12 | is not a substrate [-] |
| NCCC(=O)N[C@@H](Cc1c[nH]cn1)C(=O)O | substrate [+] |
| O=C(O)CO/N=C(\C(=O)N[C@@H]1C(=O)N2C(C(=O)O)=CCS[C@H]12)c1cscn1 | substrate [+] |
| O=C(O)CN1C[C@@H](c2cccs2)SC[C@H](N[C@@H](CCc2ccccc2)C(=O)O)C1=O | substrate [+] |
| CCOC(=O)[C@H](CCc1ccccc1)N[C@H]1CS[C@H](c2cccs2)CN(CC(=O)O)C1=O | substrate [+] |
| Nc1nc(/C(=C/CC(=O)O)C(=O)N[C@@H]2C(=O)N3C(C(=O)O)=CCS[C@H]23)cs1 | substrate [+] |
| CO/N=C(\C(=O)N[C@@H]1C(=O)N2C(C(=O)O)=CCS[C@H]12)c1csc(N)n1 | is not a substrate [-] |
| CC1(C)S[C@@H]2[C@H](NC(=O)Cc3ccccc3)C(=O)N2[C@H]1C(=O)O | substrate [+] |
